Data on 47 molecules can be found in ChEMBL document CHEMBL1201862, “PubChem BioAssay data set” (2004).

One assay deals with H4. The experiment in a line: Luminescence Cell-Based Dose Response HTS to Identify Activators of 5'UTR Stem-Loop Driven Prion Protein mRNA Translation in H4 Neuroglioblastoma Cells. [Related pubchem assays: 1829 (Project Summary), 1814 (Primary HTS)]. In kind it is functional. Conditions: Homo sapiens.
A short description of assay [1]: Luminescence Cell-Based Dose Confirmation HTS to Identify Activators of 5'UTR Stem-Loop Driven Alpha-Synuclein mRNA Translation in H4 Neuroglioblastoma Cells. [Related pubchem assays: 1829 (Project Summary), 1814 (Primary HTS)]. The assay is classed as functional.
The nature of assay [2]: Luminescence Cell-Based Dose Response HTS to Identify Activators of Luciferase Translation or Activity in H4 […] Cells. [Related pubchem assays: 1829 (Project Summary), 1814 (Primary HTS)]. In kind it is functional.
A short description of assay [3]: NIH3T3 cell viability loss – ATP luminescence, mouse fibroblasts, counter-screen, dose response (AID 2010).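 Note: cells exposed to compound for about 90 hours before reading.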 In kind it is functional, cell-based. (A counterscreen serves to expose hits that act by an unwanted route or on another target.)
A short description of assay [4]: Trypanosoma cruzi growth suppression in host cells – NIH3T3 host cells, beta-gal luminescence, confirmation (AID 2044).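 Note: intracellular parasites grown in NIH/3T3 mouse fibroblasts as host cells; luminescent beta-galactosidase reporter signal from transgenic T. cruzi replicating inside host cells; inhibitors lower the luminescence signal.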 In kind it is functional, cell-based.
Assay [5] has as its target T1, Corticotropin-releasing factor receptor 2/Corticotropin-releasing factor-binding protein (Homo sapiens, UniProt P24387+Q13324).
T1 sequence (Q13324 whole entry): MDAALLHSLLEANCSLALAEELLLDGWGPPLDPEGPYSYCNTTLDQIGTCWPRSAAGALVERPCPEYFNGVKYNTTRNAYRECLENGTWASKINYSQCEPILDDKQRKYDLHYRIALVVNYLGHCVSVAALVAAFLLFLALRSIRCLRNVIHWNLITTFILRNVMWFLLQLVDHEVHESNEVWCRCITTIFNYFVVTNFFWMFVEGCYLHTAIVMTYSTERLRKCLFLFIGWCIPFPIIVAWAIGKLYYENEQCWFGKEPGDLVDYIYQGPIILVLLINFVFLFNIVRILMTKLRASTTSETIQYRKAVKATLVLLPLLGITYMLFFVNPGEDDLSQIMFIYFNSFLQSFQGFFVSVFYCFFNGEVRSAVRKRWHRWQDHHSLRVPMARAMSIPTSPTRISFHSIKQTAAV
T1 sequence (P24387 whole entry): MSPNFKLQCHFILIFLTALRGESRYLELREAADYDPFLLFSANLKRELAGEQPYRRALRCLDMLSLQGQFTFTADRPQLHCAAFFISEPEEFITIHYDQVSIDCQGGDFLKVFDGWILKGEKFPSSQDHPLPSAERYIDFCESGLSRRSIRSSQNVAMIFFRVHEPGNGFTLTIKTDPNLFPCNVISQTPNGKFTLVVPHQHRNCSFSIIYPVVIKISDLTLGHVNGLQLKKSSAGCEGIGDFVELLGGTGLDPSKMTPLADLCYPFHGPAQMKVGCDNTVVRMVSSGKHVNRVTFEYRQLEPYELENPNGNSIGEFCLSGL
The experiment in a line: activators of CRF receptor 2 with binding protein – uHTS hits, confirmation (AID 602473). In kind it is functional. Particulars: read-out: EC50_Mean.

Another assay concerns the target Cytochrome P450 2C9 (Homo sapiens, UniProt P11712).

Usually AC50 stands for the concentration at which the activity in the assay is half-maximal.

Activity calls are given as the source filed them. Cut-off read from the data, not from the text of the source, for most assays here: actives have a measured EC50 and inactives only a lower limit. Where only a bound is given, the exact number is not on record here.

Chain of Cytochrome P450 2C9 (P11712 whole entry): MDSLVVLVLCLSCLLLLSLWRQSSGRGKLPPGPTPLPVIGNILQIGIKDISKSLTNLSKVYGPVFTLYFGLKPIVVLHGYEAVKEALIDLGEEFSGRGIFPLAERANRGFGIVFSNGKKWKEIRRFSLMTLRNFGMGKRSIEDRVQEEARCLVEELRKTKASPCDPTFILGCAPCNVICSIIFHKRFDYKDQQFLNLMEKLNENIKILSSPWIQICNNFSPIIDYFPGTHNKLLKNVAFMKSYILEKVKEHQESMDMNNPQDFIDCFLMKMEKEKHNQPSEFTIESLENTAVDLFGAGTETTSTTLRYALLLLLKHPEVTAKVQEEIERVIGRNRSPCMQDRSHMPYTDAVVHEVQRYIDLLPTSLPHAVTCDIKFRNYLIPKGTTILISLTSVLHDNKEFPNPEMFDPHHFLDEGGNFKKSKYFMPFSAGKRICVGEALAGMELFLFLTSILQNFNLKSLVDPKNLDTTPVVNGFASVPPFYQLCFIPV

On to `Brc1ccccc1C1CC(c2ccccc2)=Nc2ccccc2N1` (stereo not drawn), for which the EC50 was 36.5 µM (active) with H4, 9.58 µM (active) in assay [1] and 11.5 µM (active) in assay [2].
Turning to `O=C(/C=C/c1ccc([N+](=O)[O-])s1)N1CCN(c2ccccc2)CC1`, the EC50 was 9.18 µM (active) in assay [3] and 1.81 µM (active) in assay [4].
As to `CCCCOC(=O)c1[nH]c(C)c(C(=O)OC)c1C`, the results for the EC50 (in the assay on H4; in assay [1]; in assay [2]) were 37.7 µM (active), 2.88 µM (active) and 51.1 µM (active), respectively.
In the case of `Cc1ccc(-c2nc3ccccc3n3nnnc23)cc1`, the EC50 was 4.81 µM (active) in the assay on H4, 0.363 µM (active) in assay [1] and 10.1 µM (active) in assay [2].
For `Cc1cc(C)c(C)c(C(=O)CSc2nnc(-c3ccc4[nH]c(C)c(C)c4c3)o2)c1C`, the EC50 was > 60 µM (not active) in assay [3] and 1.61 µM (active) in assay [4].
For the molecule `Cn1c(C(=O)NCc2cccnc2)cc2sc(Cl)cc21`, the EC50 in assay [3] was > 60 µM (not active); in assay [4], 0.488 µM (active).
For `CN(C(=O)c1cccc(N2C(=O)C3C4C=CC(C4)C3C2=O)c1)C1CCCCC1` (stereo not drawn), the EC50 (in the assay on H4; in assay [1]; in assay [2]) was > 120 µM (not active) each time.
In the case of `CC1(C)OC2OC(COC(=O)c3ccccc3)C3OC(C)(C)OC3C2O1` (stereo not drawn), the EC50 was 17.3 µM (active) with H4, 15.5 µM (active) in assay [1] and 10.1 µM (active) in assay [2].
As to `CN(C)c1ccc(/C=C2\Oc3ccc(C#Cc4cccc(N)c4)cc3C2=O)cc1`, the EC50 in assay [5] was 5.04 µM (active).
Regarding `CC(C)c1ccc(NC(=O)N2CCc3ccccc3C2)cc1`, the values for the EC50 (in the assay on H4; in assay [1]; in assay [2]) were 18.3 µM (active), 12.1 µM (active) and 12.2 µM (active), respectively.
`Cc1ccnc(NC(=O)CCCNC(=O)c2ccc(Cl)cc2)c1`: the EC50 with H4 is 51.9 µM (active); in assay [1], 18.2 µM (active); in assay [2] it was 24.3 µM (active).
The corresponding values for `NC(=O)c1ccccc1Nc1nc2nc3ccccc3c(=O)n2cc1Br` are > 120 µM (not active), > 120 µM (not active) and 8.23 µM (active).
With `CCOCCCN1C(=O)CN(C2CCCCC2)C(=O)C1c1ccc(OCC)c(OC)c1` (stereo not drawn), on Cytochrome P450 2C9, the concentration at half-maximal activity (AC50) was 11.2 µM (inconclusive).
On to `Cc1ccc(-c2nn(-c3ccccc3)cc2C(=O)Nc2ccc(C)c(S(=O)(=O)N3CCOCC3)c2)cc1`, for which the EC50 in the assay with H4 was > 120 µM (not active); in assay [3], > 60 µM (not active); in assay [1], > 120 µM (not active); in assay [2], > 120 µM (not active); in assay [4], 1.57 µM (active).
Regarding `CCc1ccc(NC(=O)C(C)OC(=O)/C=C/c2ccc(O)c(OC)c2)cc1` (stereo not drawn), in assay [5], the EC50 is 5.63 µM (active).
For the molecule `O=C(Nc1ccc(-n2ccc(C(F)(F)F)n2)cc1)Nc1cccc(Cl)c1`, the EC50 in assay [3] is 6.82 µM (active); in assay [4], 2.01 µM (active).
Consider `CNC(=S)N1CCN(c2cccc(OC)c2)CC1`, for which the AC50 on Cytochrome P450 2C9 is 22.4 µM (inconclusive).
With `N=C(NOC(=O)C1CCCCC1)c1ccc(Br)cc1`, the EC50 in the assay on H4 was 1.23 µM (active); in assay [1], 27.6 µM (active); in assay [2] it was 28.7 µM (active).
`CCOc1ccc(C(=O)Nc2c(C(=O)N3CCC(N4CCCCC4)CC3)oc3ccccc23)cc1`: the EC50 in assay [3] was > 60 µM (not active); in assay [4] it was 6.28 µM (active).
`CC1=CC(C)(C)N2C(=O)C3(C(C#N)=C(N)Oc4cc(C)oc(=O)c43)c3cc(C)cc1c32` (stereo not drawn): the EC50 in assay [3] was > 60 µM (not active); in assay [4], 0.253 µM (active).
With `COc1ccc2[nH]c3c(c2c1)CN(C)CC3`, the AC50 at Cytochrome P450 2C9 is 39.8 µM (inconclusive).
For `NC(=O)NCc1ccc(Cl)cc1`, the AC50 at Cytochrome P450 2C9 was 0.0501 µM (inconclusive).
Regarding `Cc1cccc(CNc2ncncc2-c2cccc(NS(C)(=O)=O)c2)c1`, the AC50 on Cytochrome P450 2C9 was 1 µM (inconclusive).
Still for that read-out and setting: with `O=C(c1cnccn1)N1CCC2(CC1)CN(c1ccncc1)C2` the figure was 25.1 µM (inconclusive).
`Cc1ccc(CNC(=O)c2cccc3c2C(=O)c2ccc(N4CCCCC4)cc2S3(=O)=O)cc1`: the EC50 in assay [5] is 6.87 µM (active).
Consider `CC(=O)c1cn(CCCCCCCCCCn2cc(C(C)=O)c(=O)[nH]c2=O)c(=O)[nH]c1=O`, for which the concentration at half-maximal activity (AC50) at Cytochrome P450 2C9 was 3.16 µM (inconclusive).
As for `Cc1ccc(C2NC(=O)c3c(sc(C)c3C)N2)c(O)c1` (stereo not drawn), the EC50 in the assay on H4 is 21.7 µM (active); in assay [1], 3.83 µM (active); in assay [2], 22.4 µM (active).
As to `Cc1cccc(N2CCN(C(c3ccncc3)c3nnnn3C(C)(C)C)CC2)c1C` (stereo not drawn), the values for the EC50 in assay [3] and in assay [4] were > 60 µM (not active) and 2.57 µM (active), respectively.
`N#Cc1c(N)n(Cc2ccccc2)c(=O)c2cc([N+](=O)[O-])ccc12`: the values for the EC50 in assay [3] and in assay [4] were > 60 µM (not active) and 1.41 µM (active), respectively.
Turning to `O=C(NCCCn1ccnc1)c1sc2cccc(F)c2c1Cl`, the EC50 was > 60 µM (not active) in assay [3] and 2.02 µM (active) in assay [4].
On to `COc1cc2cc3c(N)c(C(=O)NCc4ccco4)sc3nc2cc1OC`, for which the values for the EC50 (with H4; in assay [1]; in assay [2]) were 11.1 µM (active), 73.7 µM (active) and 49.9 µM (active), respectively.
In the case of `CC1C(=O)OC2C1CCC1(C)CCC(=O)C(C)C21` (stereo not drawn), the EC50 in assay [3] was > 60 µM (not active); in assay [4], 2.61 µM (active).
For `CCCOc1cccc(CN2CCCCC2c2cccnc2)c1` (stereo not drawn), in that order: > 60 µM (not active) and 1.53 µM (active).
On to `CSCCC(=O)Nc1cc(S(=O)(=O)N2CCOCC2)ccc1N1CCN(C)CC1`, for which the figures for the EC50 in assay [3] and in assay [4] were > 60 µM (not active) and 1.94 µM (active), respectively.
On to `COc1ccc2c(c1OC)CN1CCc3cc4c(cc3C1C2)OCO4` (stereo not drawn) [TETRAHYDROBERBERINE], for which the EC50 in assay [3] is > 60 µM (not active); in assay [4], 3.43 µM (active).
Take `c1ccc(-c2cc(-c3nc4ccccc4[nH]3)c3ccccc3n2)cc1`: the EC50 in assay [3] is > 60 µM (not active); in assay [4], 1.7 µM (active).
As for `Cc1cc(Oc2ccccc2)nc(NCc2ccccc2)n1`, the concentration at half-maximal activity (AC50) at Cytochrome P450 2C9 was 10 µM (inconclusive).
Turning to `Cc1cc(C)c2c(CN3CCC(C)CC3)cc(=O)oc2c1`, the EC50 in the assay with H4 was 26.3 µM (active); in assay [1], 0.419 µM (active); in assay [2], > 120 µM (not active).
Turning to `O=[N+]([O-])c1cccc(-c2nnn(C34CC5CC(CC(C5)C3)C4)n2)c1`, the EC50 in the assay on H4 is 15 µM (active); in assay [1], > 120 µM (not active); in assay [2], 7.38 µM (active).
With `COc1ccc(NC(=N)Nc2nc(C)cc(C)n2)cc1`, the EC50 in assay [5] is 13.5 µM (active).
For `COc1ccc2cc(C(=O)NCC3CCCO3)[nH]c2c1` (stereo not drawn), the EC50 is 7.02 µM (active) in assay [1] and 22.9 µM (active) in assay [2].
As to `COc1cccc(CC2(CO)CCCN(Cc3cc4ccccc4[nH]3)C2)c1` (stereo not drawn), the EC50 was 18.1 µM (active) in assay [5], > 60 µM (not active) in assay [3] and 0.834 µM (active) in assay [4].
On to `CCOC(=O)c1sc(N(Cc2ccccc2)C(=O)CN2C(=O)CN(C)C2=O)nc1C`, for which the AC50 at Cytochrome P450 2C9 is 11.2 µM (inconclusive).
Turning to `CCOc1ccc(/C=C/C(=O)C(C(N)=O)=C2SCCS2)cc1`, the values for the EC50 (in the assay with H4; in assay [1]; in assay [2]) were 7.17 µM (active), 1.98 µM (active) and > 120 µM (not active), respectively.
Regarding `CC(C)c1ccc(CNc2ccc3c(c2)ncn3C)cc1`, the EC50 in the assay on H4 was > 120 µM (not active); in assay [1], 0.217 µM (active); in assay [2], 0.228 µM (inconclusive).
`Cn1c(=O)c(-c2cccs2)nc2cnc(Oc3ccccc3)nc21`: on Cytochrome P450 2C9, the AC50 is 20 µM (inconclusive).
For the molecule `Oc1nc2cc3c(cc2cc1C(c1nnnn1C1CCCCC1)N1CCSCC1)OCCO3` (stereo not drawn), the EC50 in assay [5] was > 53 µM (inactive).
